Literature values, collected in US10010615B2 (KemPharm, Inc., priority 2009, dated 2018).

Legend:
human NET = human NET (Homo sapiens, UniProt P23975); conditions: relative to quetiapine
leptin = conditions: chronic oral administration for 6 weeks

Sequence of human NET (P23975 whole entry): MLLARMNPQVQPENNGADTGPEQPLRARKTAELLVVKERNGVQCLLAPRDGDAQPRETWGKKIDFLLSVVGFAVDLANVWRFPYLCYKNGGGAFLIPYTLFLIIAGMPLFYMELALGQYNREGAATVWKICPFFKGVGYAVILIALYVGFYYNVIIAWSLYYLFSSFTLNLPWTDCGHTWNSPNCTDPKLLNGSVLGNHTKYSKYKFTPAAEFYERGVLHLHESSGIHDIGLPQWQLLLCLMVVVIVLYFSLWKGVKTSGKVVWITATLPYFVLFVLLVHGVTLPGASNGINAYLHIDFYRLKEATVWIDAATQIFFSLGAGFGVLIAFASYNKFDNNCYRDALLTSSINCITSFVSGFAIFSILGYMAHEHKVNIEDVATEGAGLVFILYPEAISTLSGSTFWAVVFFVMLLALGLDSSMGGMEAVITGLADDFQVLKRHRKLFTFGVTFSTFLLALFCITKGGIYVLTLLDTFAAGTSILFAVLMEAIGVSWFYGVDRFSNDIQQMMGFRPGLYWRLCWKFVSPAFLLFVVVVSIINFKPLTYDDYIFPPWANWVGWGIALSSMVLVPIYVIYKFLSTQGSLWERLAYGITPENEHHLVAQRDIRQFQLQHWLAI

Row | Compound | higher avidity for inhibiting human NET than quetiapine (human NET) | increase in leptin release (leptin)
1 | c1ccc2c(c1)N=C(N1CCNCC1)c1ccccc1S2 [N-desalkyl-quetiapine, 4-(dibenzo[b,f][1,4]thiazepin-11-yl)piperazine] | about 100 fold | 
2 | OCCOCCN1CCN(C2=Nc3ccccc3Sc3ccccc32)CC1 [quetiapine, 2-(2-(4-(dibenzo[b,f][1,4]thiazepin-11-yl)piperazin-1-yl)ethoxy)ethanol] |  | about 37%
